PubChem BioAssay AID330 (DTP/NCI, 2004)
Where “and” joins values, the source holds several entries; their conditions need not be identical. Identical values can stand only once. Toxic doses and inconclusive results are not listed.

Tested on: P388 leukemia ip, CD2F1 mice, survival T/C
Test: NCI In Vivo Anticancer Drug Screen. Data for tumor model P388 Leukemia (intraperitoneal) in CD2F1 (CDF1) mice
Conditions: endpoint: median survival time, higher = longer survival
In short: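 Mice carrying the transplanted tumor received test compound or vehicle. Survival was recorded in each group, and the value is the treated-group measurement divided by that of the vehicle-treated control group.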

[1] = dose: 50.0 mg/kg/injection, schedule: Q04DX003 (ip), vehicle: Klucel (hydroxypropylcellulose) (HPC)
[2] = dose: 100.0 mg/kg/injection, schedule: Q01DX009 (ip), vehicle: saline
[3] = dose: 200.0 mg/kg/injection, schedule: Q01DX009 (ip), vehicle: saline
[4] = dose: 50.0 mg/kg/injection, schedule: Q01DX005 (ip), vehicle: saline with Tween-80
[5] = dose: 100.0 mg/kg/injection, schedule: Q01DX005 (ip), vehicle: saline with Tween-80
[6] = dose: 200.0 mg/kg/injection, schedule: Q01DX005 (ip), vehicle: saline with Tween-80
[7] = dose: 25.0 mg/kg/injection, schedule: Q01DX009 (ip), vehicle: Klucel (hydroxypropylcellulose) (HPC)
[8] = dose: 50.0 mg/kg/injection, schedule: Q01DX009 (ip), vehicle: Klucel (hydroxypropylcellulose) (HPC)
[9] = dose: 100.0 mg/kg/injection, schedule: Q01DX009 (ip), vehicle: Klucel (hydroxypropylcellulose) (HPC)
[10] = dose: 50.0 mg/kg/injection, schedule: Q01DX009 (ip), vehicle: saline
[11] = dose: 50.0 mg/kg/injection, schedule: Q01DX009 (ip), vehicle: saline with Tween-80
[12] = dose: 60.0 mg/kg/injection, schedule: Q01DX005 (ip), vehicle: Klucel (hydroxypropylcellulose) (HPC)
[13] = dose: 120.0 mg/kg/injection, schedule: Q01DX005 (ip), vehicle: Klucel (hydroxypropylcellulose) (HPC)
[14] = dose: 240.0 mg/kg/injection, schedule: Q01DX005 (ip), vehicle: Klucel (hydroxypropylcellulose) (HPC)

With `O=C1NC2(CCCCC2)C(=O)N1CCCN(CCCl)CCCl` the T/C (dose: 1.5 mg/kg/injection, schedule: Q01DX005 (ip), vehicle: saline) was 121 % of control, the T/C (dose: 6.0 mg/kg/injection, schedule: Q01DX005 (ip), vehicle: saline) was 153 % of control and 156 % of control and the T/C (dose: 12.0 mg/kg/injection, schedule: Q01DX005 (ip), vehicle: saline) was 178 % of control and 200 % of control and 208 % of control. The T/C (dose: 24.0 mg/kg/injection, schedule: Q01DX005 (ip), vehicle: saline) was 162 % of control and 210 % of control.
In the case of `O=S(=O)(O)CCCOC1COc2ccccc2OCCOCCOc2ccccc2OC1`, the T/C (dose: 50.0 mg/kg/injection, schedule: Q01DX005 (ip), vehicle: saline) is reported as 99 % of control, the T/C (dose: 100.0 mg/kg/injection, schedule: Q01DX005 (ip), vehicle: saline) is reported as 101 % of control and the T/C (dose: 200.0 mg/kg/injection, schedule: Q01DX005 (ip), vehicle: saline) is reported as 98 % of control.
For `O=C(c1cccc(C(=O)N2CCCC2)n1)N1CCCC1`, the T/C (dose: 60.0 mg/kg/injection, schedule: Q01DX005 (ip), vehicle: saline) was 102 % of control, the T/C (dose: 120.0 mg/kg/injection, schedule: Q01DX005 (ip), vehicle: saline) was 102 % of control and the T/C (dose: 240.0 mg/kg/injection, schedule: Q01DX005 (ip), vehicle: saline) was 109 % of control.
For `C/C(=N\NC(=S)N1CCCCCCCCCCCC1)c1ccccn1`, the T/C (dose: 6.25 mg/kg/injection, schedule: Q04DX003 (ip), vehicle: Klucel (hydroxypropylcellulose) (HPC)) was 101 % of control, the T/C (dose: 12.5 mg/kg/injection, schedule: Q04DX003 (ip), vehicle: Klucel (hydroxypropylcellulose) (HPC)) was 100 % of control and 102 % of control and 117 % of control and the T/C (dose: 25.0 mg/kg/injection, schedule: Q04DX003 (ip), vehicle: Klucel (hydroxypropylcellulose) (HPC)) was 100 % of control and 113 % of control and 120 % of control. For the same molecule, the T/C [1] was 93 % of control.
`O=C(O)c1cccc(O)c1O` was tested, and the T/C [2] was 101 % of control and 104 % of control, the T/C [3] was 89 % of control and 96 % of control and the T/C (dose: 600.0 mg/kg/injection, schedule: Q01DX009 (ip), vehicle: saline) was 101 % of control and 89 % of control.
With `CC1(CSc2ccccc2)CC(=O)N1` (stereo not given) the T/C (dose: 50.0 mg/kg/injection, schedule: Q01DX009 (ip), vehicle: suspension in saline) was 111 % of control, the T/C (dose: 100.0 mg/kg/injection, schedule: Q01DX009 (ip), vehicle: suspension in saline) was 98 % of control and the T/C (dose: 200.0 mg/kg/injection, schedule: Q01DX009 (ip), vehicle: suspension in saline) was 99 % of control.
With `CCS/C(C#N)=C(/C)c1ccccc1` the T/C [4] was 101 % of control, the T/C [5] was 106 % of control and the T/C [6] was 108 % of control.
`CCCCCCCCCCCCCCCCCC(=O)NC[n+]1ccccc1` was tested, and the T/C (dose: 50.0 mg/kg/injection, schedule: Q04DX002 (ip), vehicle: Klucel (hydroxypropylcellulose) (HPC)) was 96 % of control, the T/C (dose: 100.0 mg/kg/injection, schedule: Q04DX002 (ip), vehicle: Klucel (hydroxypropylcellulose) (HPC)) was 87 % of control and the T/C (dose: 200.0 mg/kg/injection, schedule: Q04DX002 (ip), vehicle: Klucel (hydroxypropylcellulose) (HPC)) was 91 % of control.
`N/C(C/C(=N/OC(=O)c1ccccc1)OC(=O)c1ccccc1)=N/O` was tested, and the T/C (dose: 100.0 mg/kg/injection, schedule: Q04DX003 (ip), vehicle: saline) was 101 % of control, the T/C (dose: 200.0 mg/kg/injection, schedule: Q04DX003 (ip), vehicle: saline) was 107 % of control and the T/C (dose: 400.0 mg/kg/injection, schedule: Q04DX003 (ip), vehicle: saline) was 99 % of control.
With `Cc1c2cnccc2c(C)c2c1c1ccccc1n2CCCCCCCCCCCCn1c2ccccc2c2c(C)c3cnccc3c(C)c21` the T/C (dose: 25.0 mg/kg/injection, schedule: Q04DX002 (ip), vehicle: saline with Tween-80) was 98 % of control, the T/C (dose: 50.0 mg/kg/injection, schedule: Q04DX002 (ip), vehicle: saline with Tween-80) was 100 % of control and the T/C (dose: 100.0 mg/kg/injection, schedule: Q04DX002 (ip), vehicle: saline with Tween-80) was 100 % of control. The T/C (dose: 200.0 mg/kg/injection, schedule: Q04DX002 (ip), vehicle: saline with Tween-80) was 98 % of control.
`COC(=O)CC1(C(=O)OC)C2=C(CCC2)N2CCCC21` (stereo not given) was tested, and the T/C (dose: 12.5 mg/kg/injection, schedule: Q01DX009 (ip), vehicle: Klucel (hydroxypropylcellulose) (HPC)) was 101 % of control, the T/C [7] was 103 % of control and the T/C [8] was 97 % of control. For the same molecule, the T/C [9] was 93 % of control.
For `Oc1ccc(C2N=CNc3nc[nH]c32)c(O)c1` (stereo not given), the T/C [10] was 105 % of control, the T/C [2] was 102 % of control and the T/C [3] was 100 % of control.
`O=C(O)CSC(SCC(=O)O)c1ccc(F)cc1` was tested, and the T/C [4] was 96 % of control, the T/C [5] was 96 % of control and the T/C [6] was 97 % of control.
For `CC1=CC2ON=C(c3c(C)cc(C)cc3C)N2N(C(=O)c2ccccc2)C=C1` (stereo not given), the T/C [10] was 102 % of control, the T/C [2] was 93 % of control and the T/C [3] was 93 % of control.
`COC1OC(COS(C)(=O)=O)C(O)C(O)C1OS(C)(=O)=O` (stereo not given) was tested, and the T/C [10] was 110 % of control, the T/C [2] was 106 % of control and the T/C [3] was 106 % of control.
In the case of `COC(=O)CC1C2(C)C3=C(C)C(c4ccoc4)CC3OC2C2OC(=O)C3(C)C=CC(=O)C1(C)C23` (stereo not given), the T/C (dose: 1.25 mg/kg/injection, schedule: Q01DX009 (ip), vehicle: Klucel (hydroxypropylcellulose) (HPC)) is reported as 91 % of control, the T/C (dose: 2.5 mg/kg/injection, schedule: Q01DX009 (ip), vehicle: Klucel (hydroxypropylcellulose) (HPC)) is reported as 105 % of control and the T/C (dose: 5.0 mg/kg/injection, schedule: Q01DX009 (ip), vehicle: Klucel (hydroxypropylcellulose) (HPC)) is reported as 86 % of control. The T/C (dose: 10.0 mg/kg/injection, schedule: Q01DX009 (ip), vehicle: Klucel (hydroxypropylcellulose) (HPC)) was 86 % of control and the T/C (dose: 20.0 mg/kg/injection, schedule: Q01DX009 (ip), vehicle: Klucel (hydroxypropylcellulose) (HPC)) was 102 % of control.
For `C=C(C#N)C(NC(C)(C)C)c1ccccc1` (stereo not given), the T/C (dose: 12.5 mg/kg/injection, schedule: Q01DX001 (ip), vehicle: saline) was 96 % of control, the T/C (dose: 25.0 mg/kg/injection, schedule: Q01DX001 (ip), vehicle: saline) was 100 % of control and the T/C (dose: 50.0 mg/kg/injection, schedule: Q01DX001 (ip), vehicle: saline) was 115 % of control.
For `CC(C)NCC(O)COc1ccc(OCc2ccccc2)c(OCc2ccccc2)c1` (stereo not given), the T/C [11] was 100 % of control.
With `COc1c(OC)c(OC)c(-c2cc(=O)c3c(OC)c(OC)c(OC)c(OC)c3o2)c(OC)c1OC` the T/C (dose: 50.0 mg/kg/injection, schedule: Q01DX005 (ip), vehicle: Klucel (hydroxypropylcellulose) (HPC)) was 94 % of control, the T/C (dose: 100.0 mg/kg/injection, schedule: Q01DX005 (ip), vehicle: Klucel (hydroxypropylcellulose) (HPC)) was 88 % of control and the T/C (dose: 200.0 mg/kg/injection, schedule: Q01DX005 (ip), vehicle: Klucel (hydroxypropylcellulose) (HPC)) was 91 % of control.
For `O=C(Nc1ccc(C(=O)O)cc1)Oc1ccc(N(CCCl)CCCl)cc1`, the T/C (dose: 25.0 mg/kg/injection, schedule: Q01DX009 (ip), vehicle: saline with Tween-80) was 209 % of control, the T/C [11] was 159 % of control and the T/C (dose: 66.0 mg/kg/injection, schedule: Q04DX003 (ip), vehicle: saline with Tween-80) was 200 % of control. For the same molecule, the T/C (dose: 100.0 mg/kg/injection, schedule: Q04DX003 (ip), vehicle: saline with Tween-80) was 181 % of control and 200 % of control.
For `CCCCCCCCCCCCNC(=O)NCC(=O)OCC`, the T/C [7] was 91 % of control, the T/C [8] was 100 % of control and the T/C [9] was 103 % of control. The T/C (dose: 200.0 mg/kg/injection, schedule: Q01DX009 (ip), vehicle: Klucel (hydroxypropylcellulose) (HPC)) was 89 % of control.
For `O=Nc1ccc(O)c2ncccc12`, the T/C (dose: 50.0 mg/kg/injection, schedule: Q01DX001 (ip), vehicle: Klucel (hydroxypropylcellulose) (HPC)) was 111 % of control and the T/C (dose: 100.0 mg/kg/injection, schedule: Q01DX001 (ip), vehicle: Klucel (hydroxypropylcellulose) (HPC)) was 121 % of control.
In the case of `Nc1cccc2c1C(=O)c1ccccc1C2=O`, the T/C [1] is reported as 100 % of control, the T/C (dose: 100.0 mg/kg/injection, schedule: Q04DX003 (ip), vehicle: Klucel (hydroxypropylcellulose) (HPC)) is reported as 101 % of control and the T/C (dose: 200.0 mg/kg/injection, schedule: Q04DX003 (ip), vehicle: Klucel (hydroxypropylcellulose) (HPC)) is reported as 91 % of control. For the same molecule, the T/C (dose: 400.0 mg/kg/injection, schedule: Q04DX003 (ip), vehicle: Klucel (hydroxypropylcellulose) (HPC)) was 92 % of control.
With `COc1cc2c(cc1OC)C13CC(=O)N(C(C)=O)N1CCCN3C2=O` (stereo not given) the T/C (dose: 30.0 mg/kg/injection, schedule: Q01DX005 (ip), vehicle: Klucel (hydroxypropylcellulose) (HPC)) was 106 % of control, the T/C [12] was 97 % of control and the T/C [13] was 91 % of control and 97 % of control. For the same molecule, the T/C [14] was 88 % of control.
`CCOc1c(N=Nc2ccc(OC)cc2)c(-c2ccccc2)nn1C(N)=S` was tested, and the T/C [4] was 100 % of control, the T/C [5] was 100 % of control and the T/C [6] was 102 % of control.
For `CC1CCN(C(=O)Nc2c(Cl)cccc2Cl)CC1`, the T/C [12] was 99 % of control, the T/C [13] was 101 % of control and the T/C [14] was 94 % of control.
